Results from the kinase profiling compilation of Christmann-Franck et al. (2016).

What was measured:
Assay in all cases: KINOMEscan competition binding
Settings in all cases: compound 10.0 µM
NEK6 (human) = NEK6 (human) (UniProt Q9HC98)
TNK1 (human) = TNK1 (human) (UniProt Q13470)
NEK5 (human) = NEK5 (human) (UniProt Q6P3R8)
MKNK1 (human) = MKNK1 (human) (UniProt Q9BUB5)
NEK9 (human) = NEK9 (human) (UniProt Q8TD19)
TAOK1 (human) = TAOK1 (human) (UniProt Q7L7X3)
[1] = test system: KIT (human), P10721 [V559D/V654A]
[2] = test system: FLT3 (human), P36888 [N841I]
MAP2K1 (human) = MAP2K1 (human) (UniProt Q02750)
ULK1 (human) = ULK1 (human) (UniProt O75385)
CHEK1 (human) = CHEK1 (human) (UniProt O14757)
SBK1 (human) = SBK1 (human) (UniProt Q52WX2)
DCLK3 (human) = DCLK3 (human) (UniProt Q9C098)
TNNI3K (human) = TNNI3K (human) (UniProt Q59H18)
CDC42BPB (human) = CDC42BPB (human) (UniProt Q9Y5S2)
RPS6KA2 KD2 (human) = RPS6KA2 KD2 (human) (UniProt Q15349)
NUAK1 (human) = NUAK1 (human) (UniProt O60285)
[3] = test system: EGFR (human), P00533 [L858R]
WEE2 (human) = WEE2 (human) (UniProt P0C1S8)
CSNK1G1 (human) = CSNK1G1 (human) (UniProt Q9HCP0)
RPS6KA6 KD2 (human) = RPS6KA6 KD2 (human) (UniProt Q9UK32)
[4] = test system: EGFR (human), P00533 [P753S; 747-752 del]
DYRK1A (human) = DYRK1A (human) (UniProt Q13627)
TNK2 (human) = TNK2 (human) (UniProt Q07912)
TESK1 (human) = TESK1 (human) (UniProt Q15569)
LATS2 (human) = LATS2 (human) (UniProt Q9NRM7)
DAPK2 (human) = DAPK2 (human) (UniProt Q9UIK4)
STK3 (human) = STK3 (human) (UniProt Q13188)
NTRK2 (human) = NTRK2 (human) (UniProt Q16620)
MYO3A (human) = MYO3A (human) (UniProt Q8NEV4)
CDC42BPA (human) = CDC42BPA (human) (UniProt Q5VT25)
PIP4K2B (human) = PIP4K2B (human) (UniProt P78356)
STK4 (human) = STK4 (human) (UniProt Q13043)
MAP4K3 (human) = MAP4K3 (human) (UniProt Q8IVH8)
FYN (human) = FYN (human) (UniProt P06241)
[5] = test system: MET (human), P08581 [M1250T]
ROCK1 (human) = ROCK1 (human) (UniProt Q13464)
TLK1 (human) = TLK1 (human) (UniProt Q9UKI8)
STK33 (human) = STK33 (human) (UniProt Q9BYT3)
MAP2K6 (human) = MAP2K6 (human) (UniProt P52564)
STK32B (human) = STK32B (human) (UniProt Q9NY57)
MAPK11 (human) = MAPK11 (human) (UniProt Q15759)

Chain of NEK5 (human) (Q6P3R8 whole entry, looked up): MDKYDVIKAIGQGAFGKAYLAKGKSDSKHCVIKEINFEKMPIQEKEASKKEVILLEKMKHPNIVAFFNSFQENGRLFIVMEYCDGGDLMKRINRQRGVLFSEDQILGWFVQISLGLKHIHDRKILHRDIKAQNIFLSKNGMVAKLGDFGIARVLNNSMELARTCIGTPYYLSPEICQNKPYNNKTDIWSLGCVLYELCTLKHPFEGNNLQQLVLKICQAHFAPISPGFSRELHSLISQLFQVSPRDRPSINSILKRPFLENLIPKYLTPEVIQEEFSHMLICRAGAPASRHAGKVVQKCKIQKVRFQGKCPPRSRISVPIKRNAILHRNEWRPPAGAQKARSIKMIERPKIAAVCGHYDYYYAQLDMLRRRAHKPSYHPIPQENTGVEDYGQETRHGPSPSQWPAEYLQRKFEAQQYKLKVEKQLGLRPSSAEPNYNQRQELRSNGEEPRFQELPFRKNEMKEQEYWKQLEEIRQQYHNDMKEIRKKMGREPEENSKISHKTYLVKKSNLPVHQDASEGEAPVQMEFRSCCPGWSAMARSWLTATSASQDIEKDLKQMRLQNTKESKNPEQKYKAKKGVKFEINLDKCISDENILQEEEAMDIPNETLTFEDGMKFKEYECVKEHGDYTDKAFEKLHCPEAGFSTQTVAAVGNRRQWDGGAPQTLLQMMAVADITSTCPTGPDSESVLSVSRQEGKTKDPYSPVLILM
Chain of DCLK3 (human) (Q9C098 whole entry, looked up): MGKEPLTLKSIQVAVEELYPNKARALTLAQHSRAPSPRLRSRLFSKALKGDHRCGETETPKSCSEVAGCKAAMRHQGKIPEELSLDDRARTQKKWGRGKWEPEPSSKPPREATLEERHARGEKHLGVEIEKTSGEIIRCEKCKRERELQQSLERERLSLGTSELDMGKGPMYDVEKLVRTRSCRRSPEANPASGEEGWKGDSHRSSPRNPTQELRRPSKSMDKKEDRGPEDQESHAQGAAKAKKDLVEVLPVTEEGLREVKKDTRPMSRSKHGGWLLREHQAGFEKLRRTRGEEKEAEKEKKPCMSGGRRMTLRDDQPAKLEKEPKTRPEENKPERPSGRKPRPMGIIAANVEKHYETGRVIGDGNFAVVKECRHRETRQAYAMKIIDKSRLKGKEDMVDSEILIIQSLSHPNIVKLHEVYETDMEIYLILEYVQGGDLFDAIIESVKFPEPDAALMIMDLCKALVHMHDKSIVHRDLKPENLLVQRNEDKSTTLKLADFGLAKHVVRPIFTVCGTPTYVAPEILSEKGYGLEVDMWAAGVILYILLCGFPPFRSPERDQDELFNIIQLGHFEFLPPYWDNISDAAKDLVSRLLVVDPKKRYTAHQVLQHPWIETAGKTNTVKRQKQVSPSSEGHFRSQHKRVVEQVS
Chain of FYN (human) (P06241 whole entry, looked up): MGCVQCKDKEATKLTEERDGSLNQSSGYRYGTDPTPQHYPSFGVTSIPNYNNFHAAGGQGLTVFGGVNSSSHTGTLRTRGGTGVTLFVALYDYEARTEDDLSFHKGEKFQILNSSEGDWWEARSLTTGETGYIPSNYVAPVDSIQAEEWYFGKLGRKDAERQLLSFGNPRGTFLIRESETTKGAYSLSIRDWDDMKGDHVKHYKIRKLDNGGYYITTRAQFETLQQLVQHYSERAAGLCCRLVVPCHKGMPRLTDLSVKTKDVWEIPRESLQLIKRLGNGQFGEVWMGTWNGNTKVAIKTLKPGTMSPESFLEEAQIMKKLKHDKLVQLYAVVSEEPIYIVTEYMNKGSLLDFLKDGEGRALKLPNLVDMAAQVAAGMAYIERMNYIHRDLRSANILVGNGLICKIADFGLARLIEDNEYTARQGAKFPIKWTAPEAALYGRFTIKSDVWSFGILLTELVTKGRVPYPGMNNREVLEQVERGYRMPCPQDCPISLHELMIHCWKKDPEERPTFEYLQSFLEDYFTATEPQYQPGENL
Chain of CDC42BPA (human) (Q5VT25 whole entry, looked up): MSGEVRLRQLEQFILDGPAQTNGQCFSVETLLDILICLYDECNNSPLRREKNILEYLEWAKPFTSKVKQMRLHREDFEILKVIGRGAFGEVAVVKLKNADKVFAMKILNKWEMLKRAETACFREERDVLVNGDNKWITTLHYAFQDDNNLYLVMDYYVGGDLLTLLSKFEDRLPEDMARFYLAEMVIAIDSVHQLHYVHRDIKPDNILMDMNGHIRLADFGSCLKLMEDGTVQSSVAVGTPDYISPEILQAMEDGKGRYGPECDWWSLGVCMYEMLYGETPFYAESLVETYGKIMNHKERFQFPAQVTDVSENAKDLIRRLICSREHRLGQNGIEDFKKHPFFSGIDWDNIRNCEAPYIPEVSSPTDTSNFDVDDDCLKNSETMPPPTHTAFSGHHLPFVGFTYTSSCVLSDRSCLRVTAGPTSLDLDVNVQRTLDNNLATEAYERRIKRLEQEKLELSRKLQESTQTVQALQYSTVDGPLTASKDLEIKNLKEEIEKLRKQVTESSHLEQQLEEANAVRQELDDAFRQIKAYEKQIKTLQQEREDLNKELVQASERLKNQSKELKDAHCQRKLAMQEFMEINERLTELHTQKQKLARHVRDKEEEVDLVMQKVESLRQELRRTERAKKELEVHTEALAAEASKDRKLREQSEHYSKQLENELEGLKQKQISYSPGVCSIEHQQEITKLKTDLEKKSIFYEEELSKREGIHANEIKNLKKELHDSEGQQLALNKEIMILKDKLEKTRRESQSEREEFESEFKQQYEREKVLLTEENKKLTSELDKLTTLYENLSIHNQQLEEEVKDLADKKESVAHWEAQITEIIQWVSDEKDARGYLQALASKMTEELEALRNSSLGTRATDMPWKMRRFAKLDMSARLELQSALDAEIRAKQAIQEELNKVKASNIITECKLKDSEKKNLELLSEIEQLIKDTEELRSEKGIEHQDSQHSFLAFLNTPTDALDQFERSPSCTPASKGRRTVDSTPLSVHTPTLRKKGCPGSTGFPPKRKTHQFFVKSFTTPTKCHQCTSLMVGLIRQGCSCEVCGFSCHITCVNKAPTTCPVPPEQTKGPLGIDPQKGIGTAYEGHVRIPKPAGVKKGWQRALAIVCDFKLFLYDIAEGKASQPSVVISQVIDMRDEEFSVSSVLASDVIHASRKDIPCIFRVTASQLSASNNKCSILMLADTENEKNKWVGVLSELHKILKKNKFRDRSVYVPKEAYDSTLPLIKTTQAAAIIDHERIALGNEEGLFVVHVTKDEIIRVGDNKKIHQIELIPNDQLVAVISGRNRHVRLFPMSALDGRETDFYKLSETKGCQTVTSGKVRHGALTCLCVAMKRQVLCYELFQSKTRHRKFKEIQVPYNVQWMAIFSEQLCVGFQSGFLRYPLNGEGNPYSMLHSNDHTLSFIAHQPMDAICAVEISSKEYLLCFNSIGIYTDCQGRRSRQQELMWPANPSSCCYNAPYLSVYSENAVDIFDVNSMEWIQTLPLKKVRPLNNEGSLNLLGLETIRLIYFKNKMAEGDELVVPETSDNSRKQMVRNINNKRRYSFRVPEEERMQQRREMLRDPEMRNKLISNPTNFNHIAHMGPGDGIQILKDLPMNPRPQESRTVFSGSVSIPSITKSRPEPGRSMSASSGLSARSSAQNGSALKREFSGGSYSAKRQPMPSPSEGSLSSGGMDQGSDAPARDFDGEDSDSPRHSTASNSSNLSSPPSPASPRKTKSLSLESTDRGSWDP
Chain of RPS6KA2 KD2 (human) (Q15349 whole entry, looked up): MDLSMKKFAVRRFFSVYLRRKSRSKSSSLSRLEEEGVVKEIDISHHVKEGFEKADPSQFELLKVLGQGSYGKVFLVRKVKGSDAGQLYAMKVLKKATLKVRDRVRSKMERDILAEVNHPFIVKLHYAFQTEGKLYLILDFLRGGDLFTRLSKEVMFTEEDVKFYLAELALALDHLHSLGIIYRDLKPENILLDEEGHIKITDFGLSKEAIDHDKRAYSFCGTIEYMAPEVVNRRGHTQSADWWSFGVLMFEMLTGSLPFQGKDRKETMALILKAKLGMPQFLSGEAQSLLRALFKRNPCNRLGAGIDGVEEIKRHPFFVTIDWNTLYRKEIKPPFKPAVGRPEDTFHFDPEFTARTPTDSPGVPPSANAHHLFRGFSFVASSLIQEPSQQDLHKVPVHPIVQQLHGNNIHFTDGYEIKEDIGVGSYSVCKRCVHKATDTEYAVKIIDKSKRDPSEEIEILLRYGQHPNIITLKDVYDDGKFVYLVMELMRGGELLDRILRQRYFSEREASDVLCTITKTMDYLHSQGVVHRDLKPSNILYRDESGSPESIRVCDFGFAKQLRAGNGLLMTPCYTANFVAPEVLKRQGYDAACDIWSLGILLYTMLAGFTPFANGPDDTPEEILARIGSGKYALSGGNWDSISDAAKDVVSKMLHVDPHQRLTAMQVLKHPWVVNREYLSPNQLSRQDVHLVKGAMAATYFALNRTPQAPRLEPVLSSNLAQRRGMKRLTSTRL
Chain of NUAK1 (human) (O60285 whole entry, looked up): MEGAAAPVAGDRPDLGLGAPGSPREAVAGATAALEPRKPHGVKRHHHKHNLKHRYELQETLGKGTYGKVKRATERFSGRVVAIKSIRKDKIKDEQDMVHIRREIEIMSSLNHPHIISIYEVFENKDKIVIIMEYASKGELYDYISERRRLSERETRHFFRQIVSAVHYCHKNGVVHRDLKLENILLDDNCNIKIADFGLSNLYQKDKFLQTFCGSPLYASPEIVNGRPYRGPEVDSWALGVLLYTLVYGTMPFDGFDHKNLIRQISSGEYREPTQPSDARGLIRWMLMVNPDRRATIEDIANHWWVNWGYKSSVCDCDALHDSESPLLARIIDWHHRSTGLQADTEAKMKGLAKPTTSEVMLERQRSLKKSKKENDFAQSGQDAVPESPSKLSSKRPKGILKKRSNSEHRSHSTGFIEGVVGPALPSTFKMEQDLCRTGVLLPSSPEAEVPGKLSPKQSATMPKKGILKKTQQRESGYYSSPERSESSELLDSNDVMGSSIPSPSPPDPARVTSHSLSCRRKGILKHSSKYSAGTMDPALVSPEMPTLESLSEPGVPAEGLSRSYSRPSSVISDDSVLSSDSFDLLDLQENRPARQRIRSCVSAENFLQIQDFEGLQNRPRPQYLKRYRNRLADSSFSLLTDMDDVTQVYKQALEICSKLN

Cc1cc([C@@H](C)Nc2ccccc2C(=O)O)c2nc(N3CCOCC3)cc(=O)n2c1
kinase still bound, per cent of control (NEK6 (human)): 100% | kinase still bound, per cent of control (TNK1 (human)): 91% | kinase still bound, per cent of control (NEK5 (human)): 100% | kinase still bound, per cent of control (MKNK1 (human)): 31% | kinase still bound, per cent of control (NEK9 (human)): 94% | kinase still bound, per cent of control (TAOK1 (human)): 79% | kinase still bound, per cent of control [1]: 100% | kinase still bound, per cent of control [2]: 26% | kinase still bound, per cent of control (MAP2K1 (human)): 100% | kinase still bound, per cent of control (ULK1 (human)): 73% | kinase still bound, per cent of control (CHEK1 (human)): 64% | kinase still bound, per cent of control (SBK1 (human)): 100% | kinase still bound, per cent of control (DCLK3 (human)): 100% | kinase still bound, per cent of control (TNNI3K (human)): 15% | kinase still bound, per cent of control (CDC42BPB (human)): 100% | kinase still bound, per cent of control (RPS6KA2 KD2 (human)): 100% | kinase still bound, per cent of control (NUAK1 (human)): 100% | kinase still bound, per cent of control [3]: 96% | kinase still bound, per cent of control (WEE2 (human)): 100% | kinase still bound, per cent of control (CSNK1G1 (human)): 77% | kinase still bound, per cent of control (RPS6KA6 KD2 (human)): 71% | kinase still bound, per cent of control [4]: 100% | kinase still bound, per cent of control (DYRK1A (human)): 99% | kinase still bound, per cent of control (TNK2 (human)): 100% | kinase still bound, per cent of control (TESK1 (human)): 100% | kinase still bound, per cent of control (LATS2 (human)): 97% | kinase still bound, per cent of control (DAPK2 (human)): 74% | kinase still bound, per cent of control (STK3 (human)): 97% | kinase still bound, per cent of control (NTRK2 (human)): 81% | kinase still bound, per cent of control (MYO3A (human)): 100% | kinase still bound, per cent of control (CDC42BPA (human)): 100% | kinase still bound, per cent of control (PIP4K2B (human)): 84% | kinase still bound, per cent of control (STK4 (human)): 72% | kinase still bound, per cent of control (MAP4K3 (human)): 99% | kinase still bound, per cent of control (FYN (human)): 41% | kinase still bound, per cent of control [5]: 67% | kinase still bound, per cent of control (ROCK1 (human)): 90% | kinase still bound, per cent of control (TLK1 (human)): 100% | kinase still bound, per cent of control (STK33 (human)): 100% | kinase still bound, per cent of control (MAP2K6 (human)): 91% | kinase still bound, per cent of control (STK32B (human)): 100% | kinase still bound, per cent of control (MAPK11 (human)): 100%
